From patent publication US11369584B2, “Andrographolide derivatives and method of using the same for treatment or prevention of fibrosis” (Zhengzhou University, priority 2017, dated 2022)

Assays:
[1] = test system: human proximal tubular epithelial cells HK-2; test: TGF-β1-induced conversion of HK-2 cells to mesenchymal cells (morphological observation); format: cell-based; conditions: TGF-β1 5 ng/mL, 48 h, test concentrations 0.08-[…]
Description: Human proximal tubular epithelial cells HK-2 (provided by the China Center for Type Culture Collection) were used to study the in vitro anti-renal fibrosis effect of the compounds of the disclosure in comparison with andrographolide (AD). HK-2 cells were cultured in DMEM-F12 medium containing 10% (V/V) fetal bovine serum, 100 μg/mL streptomycin, and 100 IU/mL penicillin respectively, and then incubated in an incubator at 5% CO2 and 37° C., humidified atmosphere. HK-2 cells in logarithmic growth phase were digested with 0.25% (w/v) trypsin and 0.02% EDTA (W/V), and diluted into 5.0×10^6/mL cell suspension with DMEM-F12 medium containing 10% (v/v) fetal bovine serum. After each 96-well plate was filled with 200 μL cell suspension, the plates were placed in an incubator for 24 h in order to generate a single layer of cells. The original medium was discarded, and the cells were washed twice with PBS, and the medium without serum was added. After 24 h of re-synchronized, 200 μL of DMEM-F12 medium containing different concentrations of the test compound and the stimulating factor TGF-β1 (5 ng/mL) was added. Each treatment was repeated in 4 wells and control group was set up. After 48 h of incubation, the cells were photographed under a microscope.

[2] = test system: SD rats with liver fibrosis induced by CCl4; test: CCl4-induced liver fibrosis in SD rats; format: in vivo; conditions: ELISA
Description: SD rats were fed ad libitum for 3 days, and then randomly divided into normal group and model group. Subcutaneous injection of 40% CCl4 of soybean oil to the rats of model group for the first time. Following an initial dose of 4 mL/kg, each subsequent dose was 2 mL/kg, 2 times every week. The corresponding volumes of soy oil were injected subcutaneously to the normal group. After 4 weeks of modeling, except for the normal group, other rats were weighed individually and then randomly divided into eight rats per group. The dosages of andrographolide, oxymatrine, silibinin and the compound A of the disclosure were both 20 mg/kg, and the doses of other compounds were the same molar mass as compound A, and the model group and the normal group were given an equal amount of 0.5% CMC-Na. During the 5th and 6th weeks of the experiment, modeling and administration were carried out simultaneously, furthermore, the modeling was stopped at the 7th and 8th weeks, while the administered continued to carry out. Drugs were administrated by gavage on an empty stomach in the morning every day, and were given daily for 10 days followed by 1-day break. The bedding of the rats should be replaced at the first 8 hours of the last gavage, strictly fasting with nothing but water. After 1 h of administration, an anesthetic of 3% pentobarbital sodium (2 mL/kg) was intraperitoneally injected. […] Image-Pro Plus software performed semi-quantitative analysis of fibrosis histology on the photographs of Masson stained sections. […] The expression of α-SMA (a marker of the degree of HSC activation) in liver tissue was evaluated by immunohistochemistry, and the positive expression was quantified using Image-Pro Plus, the results were shown in FIGS. 6 and 7. Data were processed and analyzed using SPSS 17.0 statistical software. Data were expressed as mean±standard deviation (X±S); There were significant differences between groups when P<0.05. The levels of LN, C-I, PC-III and C-IV in the serum of the animals were determined by ELISA using the compound H of the disclosure as a representative. Data were processed and analyzed using SPSS 17.0 statistical software. Data were expressed as mean±standard deviation (X±S); There were significant differences between groups when P<0.05. The level of IL-6 and TNF-α in the serum of the animal was determined by ELISA using the compound H of the disclosure as a representative, the results were shown in FIGS. 20 and 21. Data were processed and analyzed using SPSS 17.0 statistical software. Data were expressed as mean±standard deviation (X±S); There were significant differences between groups when P<0.05. The level of SOD and MDA in the liver tissue of the animal was determined by the compound H of the disclosure, the results were shown in FIGS. 22 and 23. […]

| SMILES | Inhibitory effect ([1]; Table 1A) | Optimal effective dose range ([1]; Table 1A) [µM] | Inhibitory effect ([1]; Table 1B) | Optimal effective dose range ([1]; Table 1B) [µM] | content of C-I in liver tissue [2] | content of C-IV in the serum [2] |
| --- | --- | --- | --- | --- | --- | --- |
| C=C1CC[C@@H]2[C@](C)(CO)[C@H](O)CC[C@@]2(C)[C@@H]1C/C=C1/C(=O)OC[C@H]1O [AD, andrographolide] | Medium | 0.31 to 1.25 | Medium | 0.31 to 1.25 | significantly reduced | significantly reduced |
| O=C1CCC[C@@H]2[C@H]3CCC[N+]4([O-])CCC[C@@H](CN12)[C@@H]34 (some centres unmarked) [Oxymatrine, oxymatrine] | – | – | – | – | significantly reduced | significantly reduced |
